The test relates to lung cancer cell lines (e.g. NCI-H23, NCI-H1229). Put plainly: Cell based assay, cell viability (CellTiter-Glo), lung cancer cell lines. As to conditions: Homo sapiens. The procedure: Commercially available bladder cancer, prostate cancer, lung cancer, breast cancer, blood cancer, pancreatic cancer, colorectal cancer, brain cancer, neuroblastoma, melanoma, liver cancer, cervical carcinoma, ovarian cancer, renal cancer, and papilloma cell lines were each treated with trypsin-EDTA and cultured, followed by being seeded in each well of a 96 well plate. After 24 hours of treatment at constant temperature, the respective cells were treated with the candidate compound so that a final concentration became 0 to 2 μM. The treated cells were additionally cultured for 72 hours, and cell viability was measured by using an ATP detection method (CellTiter-Glo® Luminescent Cell Viability Assay, Promega).
A general note: ATP-based viability assays read luminescence as a measure of living cells.

The mark [1] stands for this setting: A549 cells, 72 hours treatment, CellTiter-Glo, read-out: IC50, lung cancer cell line A549.
Setting [2] is: DMS 114 cells, 72 hours treatment, CellTiter-Glo, read-out: IC50, lung cancer cell line DMS 114.
Where [3] appears, read: MRC-5 cells, 72 hours treatment, CellTiter-Glo, read-out: IC50.
[4] abbreviates: NCI-H23 cells, 72 hours treatment, CellTiter-Glo, read-out: IC50, lung cancer cell line NCI-H23.
Setting [5] is: NCI-H460 cells, 72 hours treatment, CellTiter-Glo, read-out: IC50, lung cancer cell line NCI-H460.
[6] abbreviates: NCI-H522 cells, 72 hours treatment, CellTiter-Glo, read-out: IC50, lung cancer cell line NCI-H522.
The mark [7] stands for this setting: NCI-H1299 cells, 72 hours treatment, CellTiter-Glo, read-out: IC50, lung cancer cell line NCI-H1299.
Where [8] appears, read: NCI-H1437 cells, 72 hours treatment, CellTiter-Glo, read-out: IC50, lung cancer cell line NCI-H1437.
Setting [9] is: Lung cancer cell line A549, 72 hours, cell viability (CellTiter-Glo), read-out: IC50, A549.
Where [10] appears, read: Lung cancer cell line DMS 114, 72 hours, cell viability (CellTiter-Glo), read-out: IC50, DMS 114.
The mark [11] stands for this setting: Lung cancer cell line NCI-H23, 72 hours, cell viability (CellTiter-Glo), read-out: IC50, NCI-H23.
Where [12] appears, read: Lung cancer cell line NCI-H460, 72 hours, cell viability (CellTiter-Glo), read-out: IC50, NCI-H460.
Where [13] appears, read: Lung cancer cell line NCI-H522, 72 hours, cell viability (CellTiter-Glo), read-out: IC50, NCI-H522.
Setting [14] is: Lung cancer cell line NCI-H1299, 72 hours, cell viability (CellTiter-Glo), read-out: IC50, NCI-H1299.
Setting [15] is: Lung cancer cell line NCI-H1437, 72 hours, cell viability (CellTiter-Glo), read-out: IC50, NCI-H1437.
[16] abbreviates: MRC-5 (listed under Lung cancer cell line), 72 hours, cell viability (CellTiter-Glo), read-out: IC50, MRC-5.

Like-named read-outs stand apart in the source and are kept apart here. A value given as a limit tells only on which side of the number the result lay.

On to `CC(=O)c1c([S+](C)[O-])n(Cc2ccc(F)c(Cl)c2)c2c(Br)ccc(Cl)c2c1=O` (stereo not drawn) [Compound 22, 3-acetyl-8-bromo-5-chloro-1-(3-chloro-4-fluorobenzyl)-2-(methylsulfinyl)quinolin-4(1H)-one], for which the IC50 (commonly the concentration that gives 50% inhibition) under setting [1] was more than 2000 nM; the IC50 under setting [2] was more than 2000 nM; the IC50 under setting [3] is more than 2000 nM; the IC50 under setting [4] was more than 2000 nM; the 50% inhibitory concentration (IC50) under setting [5] is more than 2000 nM; the IC50 under setting [6] was more than 2000 nM. For the same compound, the IC50 was more than 2000 nM under setting [7] and more than 10000 nM under setting [8].

As for `CC(=O)c1c([S+]([O-])c2ccccc2)[nH]c2c(Br)ccc(Cl)c2c1=O` (stereo not drawn) [Compound 13, 3-acetyl-8-bromo-5-chloro-2-(phenylsulfinyl)quinolin-4(1H)-one], the IC50 by setting is: under setting [1], more than 2000 nM; under setting [2], more than 2000 nM; under setting [3], more than 2000 nM; under setting [4], more than 2000 nM; under setting [5], more than 2000 nM; under setting [6], more than 2000 nM. Further, the half-maximal inhibitory concentration (IC50) by setting is: under setting [7], more than 2000 nM; under setting [8], more than 10000 nM.

As for `CC(=O)c1c([S+]([O-])Cc2nonc2C)[nH]c2c(Br)ccc(Cl)c2c1=O` (stereo not drawn) [Compound 106, 3-acetyl-8-bromo-5-chloro-2-(((4-methyl-1,2,5-oxadiazol-3-yl)methyl)sulfinyl)quinolin-4(1H)-one], the IC50 reads like this: under setting [9], more than 2000 nM; under setting [10], more than 2000 nM; under setting [11], more than 2000 nM; under setting [12], more than 2000 nM; under setting [13], more than 2000 nM; under setting [14], more than 2000 nM. Also, the half-inhibitory concentration (IC50) was more than 10000 nM under setting [15] and more than 2000 nM under setting [16].

Consider `CC(=O)c1c([S+]([O-])Cc2ccc(S(F)(F)(F)(F)F)cc2F)[nH]c2c(Br)ccc(Cl)c2c1=O` (stereo not drawn) [Compound 69, 3-acetyl-8-bromo-5-chloro-2-((2-fluoro-4-(pentafluoro-16-sulfanyl)benzyl)sulfinyl)quinolin-4(1H)-one], for which the IC50 by setting is: under setting [1], 1780 nM; under setting [2], more than 2000 nM; under setting [3], 1050 nM; under setting [4], 1130 nM; under setting [5], 1620 nM; under setting [6], more than 2000 nM. The IC50 under setting [7] turned out to be 1310 nM and the IC50 under setting [8] is more than 10000 nM.

Regarding `CC(=O)c1c(SCc2cccc(I)c2)[nH]c2c(Br)ccc(Cl)c2c1=O` [Compound 47, 3-acetyl-8-bromo-5-chloro-2-((3-iodobenzyl)thio)quinolin-4(1H)-one], the IC50 was more than 2000 nM under setting [1]; more than 2000 nM under setting [2]; more than 2000 nM under setting [3]; more than 2000 nM under setting [4]; more than 2000 nM under setting [5]; more than 2000 nM under setting [6]. For the same compound, the IC50 runs as follows: under setting [7], more than 2000 nM; under setting [8], more than 10000 nM.

On to `CC(=O)c1c(SCc2cccc(F)c2)[nH]c2c(Br)ccc(Cl)c2c1=O` [Compound 49, 3-acetyl-8-bromo-5-chloro-2-((3-fluorobenzyl)thio)quinolin-4(1H)-one], for which the IC50 runs as follows: under setting [1], more than 2000 nM; under setting [2], more than 2000 nM; under setting [3], more than 2000 nM; under setting [4], more than 2000 nM; under setting [5], more than 2000 nM; under setting [6], more than 2000 nM. The IC50 is more than 2000 nM under setting [7] and more than 10000 nM under setting [8].

Take `CC(=O)c1c(Sc2ccccc2)[nH]c2c(Br)ccc(Cl)c2c1=O` [Compound 12, 3-acetyl-8-bromo-5-chloro-2-(phenylthio)quinolin-4(1H)-one]: the IC50 is more than 2000 nM under setting [1]; more than 2000 nM under setting [2]; more than 2000 nM under setting [3]; more than 2000 nM under setting [4]; more than 2000 nM under setting [5]; more than 2000 nM under setting [6]. Moreover, the IC50 under setting [7] was more than 2000 nM and the IC50 under setting [8] was more than 10000 nM.

As for `Cc1cc(C[S+]([O-])c2[nH]c3c(Br)ccc(Cl)c3c(=O)c2C(=O)C2CC2)no1` (stereo not drawn) [Compound 96, 8-bromo-5-chloro-3-(cyclopropanecarbonyl)-2-(((5-methylisoxazol-3-yl)methyl)sulfinyl)quinolin-4(1H)-one], the IC50 runs as follows: under setting [1], more than 2000 nM; under setting [2], more than 2000 nM; under setting [3], 1810 nM; under setting [4], 1340 nM; under setting [5], more than 2000 nM; under setting [6], 1820 nM. For the same compound, the 50% inhibitory concentration (IC50) was 1800 nM under setting [7] and more than 10000 nM under setting [8].

On to `CC(=O)c1c([S+]([O-])Cc2cccc(I)c2)[nH]c2c(Br)ccc(Cl)c2c1=O` (stereo not drawn) [Compound 48, 3-acetyl-8-bromo-5-chloro-2-((3-iodobenzyl)sulfinyl)quinolin-4(1H)-one], for which the half-maximal inhibitory concentration (IC50) under setting [1] is more than 2000 nM; the IC50 under setting [2] is more than 2000 nM; the IC50 under setting [3] was more than 2000 nM; the IC50 under setting [4] amounted to 1510 nM; the concentration for half-maximal inhibition (IC50) under setting [5] is more than 2000 nM; the IC50 under setting [6] is more than 2000 nM. The IC50 was more than 2000 nM under setting [7] and more than 10000 nM under setting [8].

Regarding `CC(=O)c1c(S/C=C\C(=O)O)[nH]c2c(Br)ccc(Cl)c2c1=O` [Compound 67, (Z)-3-((3-acetyl-8-bromo-5-chloro-4-oxo-1,4-dihydroquinolin-2-yl)thio)acrylic acid], the IC50 was more than 2000 nM under setting [1]; more than 2000 nM under setting [2]; more than 2000 nM under setting [3]; more than 2000 nM under setting [4]; more than 2000 nM under setting [5]; more than 2000 nM under setting [6]. For the same compound, the 50% inhibitory concentration (IC50) is more than 2000 nM under setting [7] and more than 10000 nM under setting [8].

With `CC(=O)c1c([S+]([O-])Cc2ccc(N)nc2)[nH]c2c(Br)ccc(Cl)c2c1=O` (stereo not drawn) [Compound 100, 3-acetyl-2-(((6-aminopyridin-3-yl)methyl)sulfinyl)-8-bromo-5-chloroquinolin-4(1H)-one], the IC50 is more than 2000 nM under setting [9]; more than 2000 nM under setting [10]; more than 2000 nM under setting [11]; more than 2000 nM under setting [12]; more than 2000 nM under setting [13]; more than 2000 nM under setting [14]. Besides, the IC50 was more than 10000 nM under setting [15] and more than 2000 nM under setting [16].

As to `COc1ccccc1Sc1[nH]c2c(Br)ccc(Cl)c2c(=O)c1C(C)=O` [Compound 14, 3-acetyl-8-bromo-5-chloro-2-((2-methoxyphenyl)thio)quinolin-4(1H)-one], the IC50 by setting is: under setting [1], more than 2000 nM; under setting [2], more than 2000 nM; under setting [3], more than 2000 nM; under setting [4], more than 2000 nM; under setting [5], more than 2000 nM; under setting [6], more than 2000 nM. The IC50 is more than 2000 nM under setting [7] and more than 10000 nM under setting [8].

`CSc1c(C(C)=O)c(=O)c2cc(F)ccc2n1C` [Compound 7, 3-acetyl-6-fluoro-1-methyl-2-(methylthio)quinolin-4(1H)-one]: the IC50 is more than 2000 nM under setting [1]; more than 2000 nM under setting [2]; more than 2000 nM under setting [3]; more than 2000 nM under setting [4]; more than 2000 nM under setting [5]; more than 2000 nM under setting [6]. For the same compound, the IC50 under setting [7] is more than 2000 nM and the IC50 under setting [8] is more than 10000 nM.

Take `CC(=O)c1c(S(C)(=O)=O)n(S(=O)(=O)c2ccc(C(C)(C)C)cc2)c2c(Br)ccc(Cl)c2c1=O` [Compound 41, 3-acetyl-8-bromo-1-((4-(tert-butyl)phenyl)sulfonyl)-5-chloro-2-(methylsulfonyl)quinolin-4(1H)-one]: the IC50 is more than 2000 nM under setting [1]; more than 2000 nM under setting [2]; more than 2000 nM under setting [3]; more than 2000 nM under setting [4]; more than 2000 nM under setting [5]; more than 2000 nM under setting [6]. The IC50 is more than 2000 nM under setting [7] and more than 10000 nM under setting [8].

For the compound `CSc1[nH]c2c(Br)ccc(Cl)c2c(=O)c1C(C)=O` [Compound 2, 3-acetyl-8-bromo-5-chloro-2-(methylthio)quinolin-4(1H)-one], the IC50 by setting is: under setting [1], more than 2000 nM; under setting [2], more than 2000 nM; under setting [3], more than 2000 nM; under setting [4], more than 2000 nM; under setting [5], more than 2000 nM; under setting [6], more than 2000 nM. In addition, the IC50 was more than 2000 nM under setting [7] and more than 10000 nM under setting [8].

Regarding `CC(=O)c1c(S(=O)(=O)Cc2ccccc2)nc2c(Br)ccc(Cl)c2c1O` [Compound 54, 1-(2-(benzylsulfonyl)-8-bromo-5-chloro-4-hydroxyquinolin-3-yl)ethan-1-one], the IC50 runs as follows: under setting [1], more than 2000 nM; under setting [2], more than 2000 nM; under setting [3], more than 2000 nM; under setting [4], more than 2000 nM; under setting [5], more than 2000 nM; under setting [6], more than 2000 nM. Further, the half-maximal inhibitory concentration (IC50) was more than 2000 nM under setting [7] and more than 10000 nM under setting [8].

As for `CSc1c(C(C)=O)c(=O)c2c(Cl)ccc(Br)c2n1S(C)(=O)=O` [Compound 35, 3-acetyl-8-bromo-5-chloro-1-(methylsulfonyl)-2-(methylthio)quinolin-4(1H)-one], the IC50 reads like this: under setting [1], more than 2000 nM; under setting [2], more than 2000 nM; under setting [3], more than 2000 nM; under setting [4], more than 2000 nM; under setting [5], more than 2000 nM; under setting [6], more than 2000 nM. Also, the IC50 is more than 2000 nM under setting [7] and more than 10000 nM under setting [8].

For `CC(=O)c1c([S+]([O-])Cc2ccccc2)nc2c(Br)ccc(Cl)c2c1O` (stereo not drawn) [Compound 53, 1-(2-(benzylsulfinyl)-8-bromo-5-chloro-4-hydroxyquinolin-3-yl)ethan-1-one], the IC50 is, setting by setting: under setting [1], more than 2000 nM; under setting [2], more than 2000 nM; under setting [3], more than 2000 nM; under setting [4], more than 2000 nM; under setting [5], more than 2000 nM; under setting [6], more than 2000 nM. Also, the IC50 under setting [7] was more than 2000 nM and the IC50 under setting [8] is more than 10000 nM.

The record behind these values is patent US11464770B2, “Anticancer pharmaceutical composition” (NATIONAL CANCER CENTER, priority 2016, dated 2022).
